From patent publication US11672799B2, “1,4-disubstituted pyridazine quinolne analogs there of and methods for treating SMN-deficiency-related conditions” (Novartis AG, priority 2013, dated 2023) come the findings set out here.

Each structure is given as a SMILES string. Read-outs that look alike come from different tables or passages of the source.

The experiment has as its system SMN protein. The experiment can be described thus: cellular SMN ELISA (SMN protein elevation) in myoblast cell line from SMNdelta7 mouse model. The class given is cell-based. As to the method:
A cellular SMN ELISA was used to measure the effects of low molecular weight compounds on SMN protein elevation. Cells from a myoblast cell line derived from the SMNdelta7 mouse model (kind gift from Steve Burden, NYU) were seeded into a 384-well plate at a density of 3000 cells/well and treated with compounds for 24 hours. ELISA capture plates were prepared by coating 384-well plates (Immulon 4HBX) with 0.5 ug/mL of anti-SMN mAb (BD Science, Catalog number 610647) at 4° C. overnight. The plates were washed 5 times with 110 uL of PBS-Tween (0.05% Tween-20, PBST), blocked with 100 uL of 1% BSA in PBST for 2 hours and washed (5 times) with 100 uL of PBST. After 24 hours of compound treatment cells were lysed in a modified RIPA-buffer, on ice for 1 hour. 20 uL of lysate and 20 uL of 1% BSA were then added to the ELISA capture plates and incubated at 4° C. overnight. Plates were washed (5 times) with PBST and then incubated with 1:100 dilution of primary rabbit anti-SMN polyclonal antibody (Santa cruz, Catalog number SC-15320) at room temperature for 1 hour and subsequently washed (5 times) with 110 uL of PBST. This was followed by addition of 1:100 Goat anti-Rabbit IgG-HRP linked (Cell Signaling, Catalog number 7074) secondary antibody for 1 hour. Plates were then washed with PBST and incubated with 40 uL TMB substrate (Cell Signaling, Catalog number 7004 L) at room temperature for 1-10 minutes with shaking. The reaction was stopped by addition of 40 uL of stop solution (Cell signaling, Catalog number 7002 L) and absorption was measured at 450 nm. Data was reported as fold activation over DMSO control, and EC50.
ELISA assay condition 1: compound concentration range 20 nM-10 uM; ELISA assay condition 2: compound concentration 100 pM-10 uM. Data generated in Biological Example 1 using ELISA conditions 1 or 2.

[1] abbreviates: Biological Example 1, SMN ELISA, SMNdelta7 mouse myoblasts, 24 hours compound treatment.
Setting [2] is: Biological Example 1, SMN ELISA, SMNdelta7 mouse myoblasts, 24 hours compound treatment, read-out: SMN Activity (EC50).
Setting [3] is: comparison of unsubstituted, ortho-hydroxy and ortho-alkoxy pyridazines, as in Biological Example 1.
The mark [4] stands for this setting: comparison of unsubstituted, ortho-hydroxy and ortho-alkoxy pyridazines, as in Biological Example 1, read-out: SMN ELISA EC50.

What is called EC50 is the concentration giving half of the maximal effect.

As for `Oc1cc2ccncc2cc1-c1ccc(N2CCNCC2)nn1` [Example 27-3, 7-(6-(piperazin-1-yl)pyridazin-3-yl)isoquinolin-6-ol], the “SMN Activity (fold activation over DMSO control)” value under setting [1] was 2.74 fold. Under setting [2], the EC50 was 0.199 µM.
As for `CN(c1ccc(-c2cc3cc(-c4cn(C)cn4)cnc3cc2O)nn1)C1CC(C)(C)NC(C)(C)C1` [Example 7-4, 6-(6-(methyl(2,2,6,6-tetramethylpiperidin-4-yl)amino)pyridazin-3-yl)-3-(1-methyl-1H-imidazol-4-yl)quinolin-7-ol], under setting [1], the “SMN Activity (fold activation over DMSO control)” value is on record as 2.2 fold. Further, the half-maximal effective concentration (EC50) under setting [2] amounted to 0.2 µM.
As to `CCOc1nccc2cc(O)c(-c3ccc(N(C)C4CC(C)(C)NC(C)(C)C4)nn3)cc12` [Example 35-3, 1-ethoxy-7-(6-(methyl(2,2,6,6-tetramethylpiperidin-4-yl)amino)pyridazin-3-yl)isoquinolin-6-ol], the “SMN Activity (fold activation over DMSO control)” value under setting [1] is reported as 2.26 fold. Also, the concentration giving a half-maximal response (EC50) under setting [2] came out at 0.013 µM.
On to `CC(C)c1cnc2cc(O)c(-c3ccc(N(C)C4CC(C)(C)NC(C)(C)C4)nn3)cc2c1` [Example 8-2, 3-isopropyl-6-(6-(methyl(2,2,6,6-tetramethylpiperidin-4-yl)amino)pyridazin-3-yl)quinolin-7-ol], for which the “SMN Activity (fold activation over DMSO control)” value under setting [1] is 2.50 fold. Besides, the EC50 under setting [2] stood at 0.19 µM.
For `CN(c1ccc(-c2cc3ncccc3cc2O)nn1)C1CC(C)(C)NC(C)(C)C1` [Example 6-1, 7-(6-(methyl(2,2,6,6-tetramethylpiperidin-4-yl)amino)pyridazin-3-yl)quinolin-6-ol], the “SMN Activity (fold activation over DMSO control)” value under setting [1] is listed as 2.82 fold. Further, the EC50 came out at 0.007 µM under setting [2] and 0.007 µM under setting [4]. This compound yielded a Fold activation under setting [3] of 2.8.
Turning to `COc1cc(C)nc2cc(O)c(-c3ccc(N(C)C4CC(C)(C)NC(C)(C)C4)nn3)cc12` [Example 10-1, 4-methoxy-2-methyl-6-(6-(methyl(2,2,6,6-tetramethylpiperidin-4-yl)amino)pyridazin-3-yl)quinolin-7-ol], the “SMN Activity (fold activation over DMSO control)” value under setting [1] was found to be 3.3 fold. Further, the half-maximal effective concentration (EC50) under setting [2] was 0.01 µM.
In the case of `CN(c1ccc(-c2cc3cc(-n4ccnc4)cnc3cc2O)nn1)C1CC(C)(C)NC(C)(C)C1` [Example 7-5, 3-(1H-imidazol-1-yl)-6-(6-(methyl(2,2,6,6-tetramethylpiperidin-4-yl)amino)pyridazin-3-yl)quinolin-7-ol], the “SMN Activity (fold activation over DMSO control)” value under setting [1] turned out to be 2.5 fold. The 50% effective concentration (EC50) under setting [2] was found to be 0.05 µM.
As to `CN(c1ccc(-c2cc3cnccc3cc2O)nn1)C1CC(C)(C)NC(C)(C)C1` [Example 3-2, 7-(6-(methyl(2,2,6,6-tetramethylpiperidin-4-yl)amino)pyridazin-3-yl)isoquinolin-6-ol], the “SMN Activity (fold activation over DMSO control)” value under setting [1] was found to be 2.75 fold. The EC50 stood at 0.005 µM under setting [2] and 0.005 µM under setting [4]. Under setting [3], this compound came in with a Fold activation of 2.8.
Consider `CN(c1ccc(-c2cc3cc(Cl)cnc3cc2O)nn1)C1CC(C)(C)NC(C)(C)C1` [Example 7-1, 3-chloro-6-(6-(methyl(2,2,6,6-tetramethylpiperidin-4-yl)amino)pyridazin-3-yl)quinolin-7-ol], for which the “SMN Activity (fold activation over DMSO control)” value under setting [1] is on record as 2.8 fold. The EC50 under setting [2] came to 0.014 µM.
Turning to `Cc1cc(Cl)c2cc(-c3ccc(N(C)C4CC(C)(C)NC(C)(C)C4)nn3)c(O)cc2n1` [Preparation 11, 4-chloro-2-methyl-6-(6-(methyl(2,2,6,6-tetramethylpiperidin-4-yl)amino)pyridazin-3-yl)quinolin-7-ol], the “SMN Activity (fold activation over DMSO control)” value under setting [1] was found to be 2.6 fold. Moreover, the EC50 under setting [2] was 0.28 µM.
Regarding `Cc1cc(-c2cnn(C)c2)c2cc(-c3ccc(N(C)C4CC(C)(C)NC(C)(C)C4)nn3)c(O)cc2n1` [Example 11-1, 2-methyl-6-(6-(methyl(2,2,6,6-tetramethylpiperidin-4-yl)amino)pyridazin-3-yl)-4-(1-methyl-1H-pyrazol-4-yl)quinolin-7-ol], the “SMN Activity (fold activation over DMSO control)” value under setting [1] is 2.6 fold. Also, the EC50 under setting [2] was 0.06 µM.
For the compound `CN(c1ccc(-c2cc3ccc(C(N)=O)nc3cc2O)nn1)C1CC(C)(C)NC(C)(C)C1` [Example 26-5, 7-hydroxy-6-(6-(methyl(2,2,6,6-tetramethylpiperidin-4-yl)amino)pyridazin-3-yl)quinoline-2-carboxamide], the “SMN Activity (fold activation over DMSO control)” value under setting [1] was 2.16 fold. In addition, under setting [2], the EC50 was 0.001 µM.
For the compound `Cc1cnc2cc(-c3ccc(N(C)C4CC(C)(C)NC(C)(C)C4)nn3)c(O)cc2c1` [Example 15-3, 3-methyl-7-(6-(methyl(2,2,6,6-tetramethylpiperidin-4-yl)amino)pyridazin-3-yl)quinolin-6-ol], under setting [1], the “SMN Activity (fold activation over DMSO control)” value came out at 3.28 fold. Also, the EC50 under setting [2] is 0.007 µM.
The corresponding values for `CC1(C)CC(Oc2ccc(-c3cc4c(O)nccc4cc3O)nn2)CC(C)(C)N1` [Example 35-4, 7-(6-((2,2,6,6-tetramethylpiperidin-4-yl)oxy)pyridazin-3-yl)isoquinoline-1,6-diol] are 3.26 fold and 0.096 µM.
For the compound `CN(C)c1ccnc2cc(O)c(-c3ccc(N(C)C4CC(C)(C)NC(C)(C)C4)nn3)cc12` [Example 21-1, 4-(dimethylamino)-6-(6-(methyl(2,2,6,6-tetramethylpiperidin-4-yl)amino)pyridazin-3-yl)quinolin-7-ol], under setting [1], the “SMN Activity (fold activation over DMSO control)” value came out at 3.01 fold. In addition, the EC50 under setting [2] was 0.06 µM.
With `CN(c1ccc(-c2cc3nc(C#N)ccc3cc2O)nn1)C1CC(C)(C)NC(C)(C)C1` [Example 26-3, 6-hydroxy-7-(6-(methyl(2,2,6,6-tetramethylpiperidin-4-yl)amino)pyridazin-3-yl)quinoline-2-carbonitrile], the “SMN Activity (fold activation over DMSO control)” value under setting [1] is recorded as 3.47 fold. The 50% effective concentration (EC50) under setting [2] was determined as 0.006 µM.
Consider `CN(c1ccc(-c2cc3c(C#N)nccc3cc2O)nn1)C1CC(C)(C)NC(C)(C)C1` [Example 3-7, 6-hydroxy-7-(6-(methyl(2,2,6,6-tetramethylpiperidin-4-yl)amino)pyridazin-3-yl)isoquinoline-1-carbonitrile], for which the “SMN Activity (fold activation over DMSO control)” value under setting [1] is listed as 2.9 fold. Besides, the EC50 under setting [2] stood at 0.002 µM.
Turning to `CN(c1ccc(-c2cc3ncc(Cl)cc3cc2O)nn1)C1CC(C)(C)NC(C)(C)C1` [Example 15-1, 3-chloro-7-(6-(methyl(2,2,6,6-tetramethylpiperidin-4-yl)amino)pyridazin-3-yl)quinolin-6-ol], the “SMN Activity (fold activation over DMSO control)” value under setting [1] was determined as 2.68 fold. Moreover, the EC50 under setting [2] came out at 0.016 µM.
`COc1cc2cccnc2cc1-c1ccc(N(C)C2CC(C)(C)NC(C)(C)C2)nn1` [drawing 136 R = OMe, 6-(6-Methoxyquinolin-7-yl)-N-methyl-N-(2,2,6,6-tetramethylpiperidin-4-yl)pyridazin-3-amine] came in with a Fold activation under setting [3] of 1.7. In addition, under setting [4], the EC50 was 1.17 µM.
Consider `CN(c1ccc(-c2cc3ncc(Br)cc3cc2O)nn1)C1CC(C)(C)NC(C)(C)C1` [Example 15-2, 3-bromo-7-(6-(methyl(2,2,6,6-tetramethylpiperidin-4-yl)amino)pyridazin-3-yl)quinolin-6-ol], for which the “SMN Activity (fold activation over DMSO control)” value under setting [1] worked out at 2.52 fold. For the same compound, the EC50 under setting [2] is 0.019 µM.
